Results from patent US11718635B2, “Iron bis(imino) aryl catalysts and methods thereof” (ExxonMobil Chemical Patents Inc., priority 2019, dated 2023).

Assay: Solubility tests in anhydrous hexane (stirred 30 minutes at room temperature, filtered, solvent removed)
Assay type: physicochemical
Description: (§1) This solution was stirred for 30 minutes at room temperature. The contents were then filtered through a buchner filter funnel with a frit having a 4-5.5 micron size. The solvent was then removed en vacuo.
as §1

| calculated solubility (anhydrous hexane, stirred 30 minutes at room temperature, filtered through 4-5.5 micron frit) [g/g hexane] | solubility in hydrophobic (nonpolar) solvents compared to the Comparative Catalyst | Compound |
| --- | --- | --- |
| 0.0 |  | CC(=Nc1c(C)cc(C)cc1Cl)c1cccc(C(C)=Nc2c(C)cc(C)cc2Cl)n1.[Cl][Fe][Cl] [2,6-bis-[1-(2-chloro-4,6-dimethylphenylimino)ethyl]pyridine iron dichloride] |
|  | significantly improved solubility | (E)-N-(2-chloro-4,6-dimethylphenyl)-1-(6-((E)-1-(mesitylimino)ethyl)pyridin-2-yl)ethan-1-imine iron-silylneopentyl [Catalyst 1] |
